In BindingDB's records for doi:10.1080/14756360903179351 (University of Tehran, 2010):
Several values for one entry are separate records, joined by “and”; a condition that tells them apart may be missing. Equal values may be shown once. Where a name gives a salt, the structure may show the parent alone.

Molecular target: T1, Polyphenol oxidase 1 (White button mushroom, UniProt Q00024)
T1 sequence (Q00024 whole entry): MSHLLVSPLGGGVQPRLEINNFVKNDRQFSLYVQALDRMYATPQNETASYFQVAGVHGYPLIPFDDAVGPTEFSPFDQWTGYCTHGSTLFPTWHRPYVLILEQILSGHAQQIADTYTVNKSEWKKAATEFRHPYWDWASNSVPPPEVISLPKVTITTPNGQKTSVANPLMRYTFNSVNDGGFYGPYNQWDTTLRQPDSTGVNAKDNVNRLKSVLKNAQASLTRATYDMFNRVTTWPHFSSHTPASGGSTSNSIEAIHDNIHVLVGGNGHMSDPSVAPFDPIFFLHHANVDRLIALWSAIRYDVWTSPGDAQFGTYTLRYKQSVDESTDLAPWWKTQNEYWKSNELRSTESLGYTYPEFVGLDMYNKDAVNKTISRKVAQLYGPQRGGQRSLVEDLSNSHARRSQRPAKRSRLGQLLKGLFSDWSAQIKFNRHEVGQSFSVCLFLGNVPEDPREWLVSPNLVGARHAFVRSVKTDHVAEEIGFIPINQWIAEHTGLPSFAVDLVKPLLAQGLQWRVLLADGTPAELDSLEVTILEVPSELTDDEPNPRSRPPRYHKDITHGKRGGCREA
Assay: MT Kinetic Assay
Settings: pH 6.8
Method: The assay was performed as previously described with slight modifications [Chen et al., J. Agric. Food Chem., 50:4108-12]. The reaction medium was 1 mL in 50 mM phosphate buffer (pH 6.8). The final concentration of mushroom tyrosinase was 26.07 μg/mL for cresolase activity and 6.52 μg/mL for catecholase activity. Freshly prepared enzyme, substrate, and dithiocarbamates I and II were used in this work. The reaction was carried out under constant temperatures of 27 and 37°C. Substrate addition followed incubation of the enzyme with different concentrations of synthetic inhibitors.

SMILES	Ki (27 °C)	Ki (37 °C)
S=C(S)NCc1ccccc1	14.1 µM and 9.4 µM	5.9 µM and 5.7 µM
S=C(S)NCc1ccc(CNC(=S)S)cc1 [p-Xylidine-bis(dithiocarbamate) sodium salt (II)]	0.64 µM and 0.29 µM	0.95 µM and 1.05 µM
